Article PMC9837035 (Nature Communications, 2023)
Where “and” joins values, the source holds several entries; their conditions need not be identical. Identical values can stand only once.

Columns and labels:
HUDEP-2 cells = assay: Cell viability assay (WST-8), HUDEP-2; assay type: cell-based, human; settings: for cell viability in HUDEP-2 cells: control (0 μM) = 100
Experimental: (§1) A WST-8 (2-(2-methoxy-4-nitrophenyl)-3-(4-nitrophenyl)-5-(2,4-disulfophenyl)-2H-tetrazolium) assay using a Cell Counting Kit-8 (DOJINDO) was performed to measure cell viability using an EnSpire microplate reader (PerkinElmer).

[1] = Cell viability assay (WST-8), HUDEP-2; assay type: cell-based, human; settings: human, HUDEP-2 cells, control (0 μM) = 100
Experimental: as §1

PRMT8 = PRMT8 (Homo sapiens, UniProt Q9NR22); assay: Radioisotope-based methyltransferase assay (selectivity)
PRMT8, sequence (Q9NR22 whole entry): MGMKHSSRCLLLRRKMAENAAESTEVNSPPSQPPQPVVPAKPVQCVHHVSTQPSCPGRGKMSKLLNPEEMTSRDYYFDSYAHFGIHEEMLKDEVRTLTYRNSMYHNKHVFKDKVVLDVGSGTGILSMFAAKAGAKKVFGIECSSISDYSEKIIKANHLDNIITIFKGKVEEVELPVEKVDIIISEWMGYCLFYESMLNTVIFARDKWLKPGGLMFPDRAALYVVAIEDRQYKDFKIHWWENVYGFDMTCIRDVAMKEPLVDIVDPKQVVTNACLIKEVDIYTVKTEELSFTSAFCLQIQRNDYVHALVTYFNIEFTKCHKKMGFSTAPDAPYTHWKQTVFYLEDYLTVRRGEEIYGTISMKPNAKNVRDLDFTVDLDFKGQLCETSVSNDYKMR

MLL4 [2] = assay: as above; settings: MLL4, 1 μM SAM
MLL4, sequence (Q9UMN6 2490-2715): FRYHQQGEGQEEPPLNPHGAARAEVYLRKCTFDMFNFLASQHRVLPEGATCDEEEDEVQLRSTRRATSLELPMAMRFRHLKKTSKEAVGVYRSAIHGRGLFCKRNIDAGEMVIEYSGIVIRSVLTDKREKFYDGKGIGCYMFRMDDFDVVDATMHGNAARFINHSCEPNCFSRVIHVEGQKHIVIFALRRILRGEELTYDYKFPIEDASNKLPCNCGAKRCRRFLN
MLL4, sequence (Q9UBL3 whole entry, further chain): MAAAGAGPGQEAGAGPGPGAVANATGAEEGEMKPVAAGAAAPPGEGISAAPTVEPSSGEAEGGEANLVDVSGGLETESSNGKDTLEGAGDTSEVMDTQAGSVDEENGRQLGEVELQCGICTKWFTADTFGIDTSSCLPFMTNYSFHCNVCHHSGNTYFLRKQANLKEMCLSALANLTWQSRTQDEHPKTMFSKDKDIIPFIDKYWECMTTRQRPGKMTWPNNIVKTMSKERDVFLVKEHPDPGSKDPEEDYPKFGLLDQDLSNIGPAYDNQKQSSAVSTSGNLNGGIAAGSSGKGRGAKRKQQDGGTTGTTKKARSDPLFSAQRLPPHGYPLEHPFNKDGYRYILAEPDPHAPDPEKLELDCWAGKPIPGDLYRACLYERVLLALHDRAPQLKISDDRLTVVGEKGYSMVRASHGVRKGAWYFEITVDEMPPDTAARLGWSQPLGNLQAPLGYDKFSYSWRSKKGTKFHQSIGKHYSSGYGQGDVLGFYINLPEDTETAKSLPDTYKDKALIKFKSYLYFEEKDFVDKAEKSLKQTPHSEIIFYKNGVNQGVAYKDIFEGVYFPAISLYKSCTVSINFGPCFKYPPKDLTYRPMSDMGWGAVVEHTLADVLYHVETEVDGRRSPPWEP
MLL4, sequence (Q9C005 whole entry, further chain): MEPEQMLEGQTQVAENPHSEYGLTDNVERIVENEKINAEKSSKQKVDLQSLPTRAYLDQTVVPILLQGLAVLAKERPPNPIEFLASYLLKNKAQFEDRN
MLL4, sequence (Q15291 whole entry, further chain): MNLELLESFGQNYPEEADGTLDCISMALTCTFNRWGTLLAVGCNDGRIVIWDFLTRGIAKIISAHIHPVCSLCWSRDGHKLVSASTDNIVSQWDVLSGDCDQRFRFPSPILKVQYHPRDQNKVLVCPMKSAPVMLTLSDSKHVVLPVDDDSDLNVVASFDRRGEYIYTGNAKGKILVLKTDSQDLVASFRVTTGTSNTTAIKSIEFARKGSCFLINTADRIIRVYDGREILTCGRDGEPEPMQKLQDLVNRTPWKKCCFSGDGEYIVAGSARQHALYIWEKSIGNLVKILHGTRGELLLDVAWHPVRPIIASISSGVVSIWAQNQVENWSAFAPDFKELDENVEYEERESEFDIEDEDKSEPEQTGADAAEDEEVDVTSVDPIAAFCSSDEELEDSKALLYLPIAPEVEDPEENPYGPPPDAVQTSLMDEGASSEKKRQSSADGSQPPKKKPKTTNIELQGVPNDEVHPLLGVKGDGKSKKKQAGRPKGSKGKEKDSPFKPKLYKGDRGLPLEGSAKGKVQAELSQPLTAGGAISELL

mice = assay: Mouse acute toxicity assay, survival; assay type: in vivo; settings: intravenous; for Number of alive mice: 2-week observation
Method in brief: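 Four-week-old female ICR mice received compounds intravenously in saline with 10% DMSO and 1% Tween 80; body weight and survival monitored.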

EZH1 = EZH1 (Homo sapiens, UniProt Q92800); assay: biochemical
[3] = tested on: bone marrow cells of rats; assay: In vivo micronucleus assay
From the text: A negative control group was established, where the animals received orally 5% methylcellulose solution. […] We counted erythrocytes, recorded the frequencies of polychromatic erythrocyte (PCE) cells in 500 erythrocytes and micronucleated polychromatic erythrocyte (MNPCE) cells in 4000 PCE cells, and calculated the average frequency and the standard deviations for each treatment groups.

PRMT6 = PRMT6 (Homo sapiens, UniProt Q96LA8); assay: biochemical
PRMT6, sequence (Q96LA8 whole entry): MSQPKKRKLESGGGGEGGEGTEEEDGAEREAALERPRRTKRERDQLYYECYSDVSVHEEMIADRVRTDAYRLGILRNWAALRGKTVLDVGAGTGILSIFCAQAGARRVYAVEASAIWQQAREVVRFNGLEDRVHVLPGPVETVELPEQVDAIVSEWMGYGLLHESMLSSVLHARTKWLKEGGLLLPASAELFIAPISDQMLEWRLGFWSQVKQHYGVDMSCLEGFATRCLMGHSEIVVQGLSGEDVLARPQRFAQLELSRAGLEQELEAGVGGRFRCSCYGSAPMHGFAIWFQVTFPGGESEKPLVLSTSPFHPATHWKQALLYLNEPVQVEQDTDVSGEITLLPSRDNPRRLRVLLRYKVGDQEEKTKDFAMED

MLL4 [4] = molecular target: MLL4 (Homo sapiens, UniProt Q9UMN6); assay: Radioisotope-based methyltransferase assay (selectivity); settings: MLL4, 1 μM SAM
MLL4 (Homo sapiens, UniProt Q9UMN6), sequence (Q9UMN6 2490-2715): as the sequence (Q9UMN6 2490-2715) above
MLL4 (Homo sapiens, UniProt Q9UMN6), sequence (Q9UBL3 whole entry, further chain): as the sequence (Q9UBL3 whole entry, further chain) above
MLL4 (Homo sapiens, UniProt Q9UMN6), sequence (Q9C005 whole entry, further chain): as the sequence (Q9C005 whole entry, further chain) above
MLL4 (Homo sapiens, UniProt Q9UMN6), sequence (Q15291 whole entry, further chain): as the sequence (Q15291 whole entry, further chain) above

[5] = Dose 10 mg/kg, individual animals
[6] = Dose 30 mg/kg, individual animals
[7] = Dose 100 mg/kg, individual animals
[8] = male rats, oral 2 weeks, 10 mg/kg, Mean ± S.D.
[9] = male rats, oral 2 weeks, 30 mg/kg, Mean ± S.D.
[10] = male rats, oral 2 weeks, 100 mg/kg, Mean ± S.D.

In the case of `Cc1c(C(=O)NC(CCC2CC2)C(=O)Nc2ccc(C#N)cc2)[nH]c2c1C(=O)CC(C)(C)C2` (centres unmarked) [RK-701], the “cell viability in HUDEP-2 cells” value (HUDEP-2 cells; 0.00457247 μM) is reported as 120.908 and 97.8824 and 118.228, the “cell viability in HUDEP-2 cells” value (HUDEP-2 cells; 0.0137174 μM) is reported as 97.2549 and 110.051 and the “cell viability in HUDEP-2 cells” value (HUDEP-2 cells; 0.0411523 μM) is reported as 112.451 and 91.2941 and 106.985. For the same compound, the “cell viability in HUDEP-2 cells” value (HUDEP-2 cells; 0.123457 μM) was 96.9412 and 105.622, the “cell viability in HUDEP-2 cells” value (HUDEP-2 cells; 0.37037 μM) was 97.8824 and 103.918 and the “cell viability in HUDEP-2 cells” value (HUDEP-2 cells; 1.11111 μM) was 96.3137 and 96.4225. For the same compound, the “cell viability in HUDEP-2 cells” value (HUDEP-2 cells; 3.33333 μM) was 88.1569 and 84.8382, the “cell viability in HUDEP-2 cells” value (HUDEP-2 cells; 10 μM) was 78.4314 and 79.046 and the “cytotoxic effect on viability” value (HUDEP-2 cells; HUDEP-2, 3 days) was “essentially no cytotoxic effect”. For the same compound, the viability at 0.0137174 μM ([1]; 0.0137174 μM) was 99.9%, the viability at 0.123457 μM ([1]; 0.123457 μM) was 97.4% and the viability at 0.37037 μM ([1]; 0.37037 μM) was 99.9%. It also gave a viability at 1.11111 μM ([1]; 1.11111 μM) of 105%, a viability at 3.33333 μM ([1]; 3.33333 μM) of 94.3% and a viability at 10 μM ([1]; 10 μM) of 77.4%. The IC50 (PRMT8) was > 100000 nM, the IC50 (MLL4 [2]) was > 100000 nM and the “Number of alive mice” value (mice; 12.5 mg/kg) was 3/3. For the same compound, the “Number of alive mice” value (mice; 25 mg/kg) was 3/3, the “Number of alive mice” value (mice; 50 mg/kg) was 3/3 and the “Number of alive mice” value (mice; 100 mg/kg) was 3/3. The “acute toxicity, survival” value (mice; mice) was “survived for two weeks”, the IC50 (EZH1) was > 100000 nM and the “MNPCE (%)” value [3, 5] was 0.15% and 0.18% and 0.13% and 0.23%. For the same compound, the “No. of PCE in 500 erythrocytes” value [3, 5] was 331 and 285 and 278 and 305 and 288, the “Number of MNPCE in 4000 PCE” value [3, 5] was 6 and 7 and 5 and 9 and the “PCE (%)” value [3, 5] was 66.2% and 57% and 55.6% and 61% and 57.6%. The “MNPCE (%)” value [3, 6] was 0.08% and 0.1%, the “No. of PCE in 500 erythrocytes” value [3, 6] was 299 and 308 and 294 and 330 and 306 and the “Number of MNPCE in 4000 PCE” value [3, 6] was 3 and 4. The “PCE (%)” value [3, 6] was 59.8% and 61.6% and 58.8% and 66% and 61.2%, the “MNPCE (%)” value [3, 7] was 0.13% and 0.1% and 0.18% and 0.15% and the “No. of PCE in 500 erythrocytes” value [3, 7] was 258 and 313 and 314 and 323 and 328. For the same compound, the “Number of MNPCE in 4000 PCE” value [3, 7] was 5 and 4 and 7 and 6, the “PCE (%)” value [3, 7] was 51.6% and 62.6% and 62.8% and 64.6% and 65.6% and the “MNPCE (%)” value [3, 8] was 0.17 ± 0.04%. The “No. of PCE in 500 erythrocytes” value [3, 8] was 297 ± 21, the “PCE (%)” value [3, 8] was 59.5 ± 4.2% and the “MNPCE (%)” value [3, 9] was 0.09 ± 0.01%. For the same compound, the “No. of PCE in 500 erythrocytes” value [3, 9] was 307 ± 14, the “Number of MNPCE in 4000 PCE” value [3, 9] was 4 ± 1 and the “PCE (%)” value [3, 9] was 61.5 ± 2.8%. For the same compound, the “MNPCE (%)” value [3, 10] was 0.13 ± 0.03%, the “No. of PCE in 500 erythrocytes” value [3, 10] was 307 ± 28 and the “Number of MNPCE in 4000 PCE” value [3, 10] was 5 ± 1. The “PCE (%)” value [3, 10] was 61.4 ± 5.6%, the “Number of MNPCE in 4000 PCE” value ([3]; male rats, oral once a day 2 weeks, 10 mg/kg, Mean ± S.D.) was 7 ± 1 and the “formation of micronuclei in bone marrow cells” value ([3]; rats, oral, up to 100 mg/kg, two weeks) was “did not cause the formation of micronuclei”.

Compound `Nc1ncnc2c1ncn2[C@@H]1O[C@H](CSCC[C@H](N)C(=O)O)[C@@H](O)[C@H]1O` [SAH, S-(5'-Adenosyl)-L-homocysteine, reference compound] has an IC50 (PRMT6) of 408 nM and an IC50 (MLL4 [4]) of 1100 nM.
